From patent US20230312652A1, “NOVEL PEPTIDES AND USES THEREOF” (Aarhus Universitet, priority 2020, published 2023)
Where a SMILES comes first, the peptide text is derived from it.

Legend:
CREB = CREB activation (phosphorylation on serine 133) in wild-type cortical neurons, western blotting; assay type: cell-based, mouse; conditions: 20 minutes, 7 days in vitro
Experimental: (§1) To assess the ability of peptides P1, P2 and P6, respectively, to activate transcription factor CREB, cortical neurons were isolated from p0 wild-type mice and seeded in a density of 500.000 per well. After 7 days in vitro the neurons were stimulated with the different peptide variants at 1 uM in neurobasal A media and incubated at 37° C. and 5% C02 for 20 minutes. Hereafter, the neurons were lysed in lysis buffer containing DTT and cOmplete cocktail protease inhibitor and subsequently sonicated to disrupt the nuclear membrane. The phosphorylation of CREB on serine 133 was validated by western blotting normalized to beta-actin. As control, cells were stimulated with a scrambled peptide (Scr). Student's t-test was used for statistical analysis.
as §1, with “The” for “To assess the”, “peptide P1” for “peptides P1, P2”, “a linear peptide analog of P1 with acetylated N- and amidated C-terminals (referred to as LP1)” for “P6, respectively,”, “CREB was assessed. Cortical” for “CREB, cortical”, “20 nM” for “1 uM”, “CO2” for “C02”

[1] = tested on: primary hippocampal neurons; assay: Lysosomal acidification in wild-type hippocampal neurons, LysoSensor DND-189 live imaging; assay type: cell-based, mouse; conditions: 1 uM
Experimental: (§2) Primary hippocampal neurons were seeded in an 8-well ibidi chamber pre-coated with Poly-I and laminin. 75.000 neurons were seeded pr. well. After 5 days in vitro the neurons were stimulated for 4, 8 or 24 hours with peptide P1 at 1 uM in neurobasal A with B27. After stimulation, the medium was changed to pre-warmed (37° C.) neurobasal A containing 1 uM of LysoSensor probe DND-189 (an acidotropic probes that accumulates in acidic organelles as the result of protonation) and incubated for 30 min. at 37° C. in a 5% C02 atmosphere. Hereafter, the media was changed to pre-warmed FluoroBrite Medium and the neurons were imaged in Olympus microscopy system. Pictures were taken of the lysosomes and processed using the ScanR imaging software to give fluorescence (intensity) of each lysosomal vesicle. The summed total intensity of all lysosomes was calculated and divided by the total number of neurons imaged yielding the total intensity of lysosomes per neuron. Student's t-test was used for statistical analysis.

[2] = tested on: GRN+/- hippocampal neurons; assay: Lysosomal acidification in GRN+/- hippocampal neurons, LysoSensor DND-189; assay type: cell-based, mouse; conditions: 1 uM, 4 hours
Experimental: as §2, with “hippocampal neurons from GRN+/− mice were seeded” for “hippocampal neurons were seeded”, “and laminin. 75,000 neurons were” for “and laminin. 75.000 neurons were”

ST HDH cells (Q111, Q7) = assay: Active mitochondrial mass in ST HDH cells, MitoTracker; assay type: cell-based, mouse
Experimental: The impact on mitochondrial function was assessed in ST HDH cells (mouse striatal cell line) expressing either HTT with a 111 polyglutamine stretch (Q111) or a 7 polyglutamine stretch (Q7), thereby serving as a model of HD. The cells were stimulated with P1 at timepoints between 0-24 hours and mitochondrial mass was subsequently measured using MitoTracker—a probe which binds to active mitochondria. Signal was measured in plate-reader at ex/em […].

[3] = Stability in L-His buffer formulation with hyaluronidase; assay type: physicochemical; conditions: up to 7 days
Experimental: Buffer solution containing 4.4 mM L-histidine, 140 mM NaCl, 0.2% w/V Tween 20 and 1500 IU/mL hyaluronidase was incubated with 1 mM P1 at −20° C., 4° C. and 25° C. for up to 7 days. LCMS was used to ascertain the amount of P1 remaining in the solutions.

BDNF, TFEB and PGC1a = assay: CREB-downstream target levels in wild-type cortical neurons; assay type: cell-based, mouse; conditions: 1 uM, 4 hours or 6 hours
Experimental: Cortical neurons were isolated from p0 wild-type mice and seeded in a density of 200,000 per well (24-well tray). After 7 days in vitro the neurons were stimulated with 1 uM P1 in neurobasal A media and incubated at 37° C. and 5% CO2 for 4 hours or 6 hours. Hereafter, the neurons were lysed in RIPA lysis buffer containing cOmplete cocktail protease inhibitor.

With `CSCC[C@@H]1NC(=O)[C@H](C(C)C)NC(=O)[C@H](CC(=O)O)NC(=O)[C@H](CCC(=O)O)NC(=O)[C@H](CCC(=O)O)NC(=O)[C@H](Cc2c[nH]cn2)NC(=O)[C@H](CCC(=O)O)NC(=O)[C@H](C(C)C)NC(=O)[C@@H]2CCCN2C(=O)[C@H](CCC(=O)O)NC(=O)[C@H]([C@@H](C)O)NC1=O` [Peptide P1, [MTEPVEHEEDV]] (cyclo(MTEPVEHEEDV)) the “activation of CREB (phosphorylation on serine 133) compared to scrambled peptide” value (CREB; 20 nM) was “activated CREB”, the “activation of CREB (phosphorylation on serine 133) compared to scrambled peptide” value (CREB; 1 uM) was “markedly activated CREB” and the “lysosomal intensity (lysosomal acidification)” value (“lysosomal intensity” below) ([1]; 4 hours) was “lysosomal intensity was increased”. The “lysosomal intensity” value ([1]; 8 hours) was “lysosomal intensity was increased”, the “lysosomal intensity” value ([1]; 24 hours) was “no difference” and the “lysosomal intensity” value [2] was “lysosomal intensity was increased”. The mitochondrial mass (ST HDH cells (Q111, Q7); Q7 cells) was “mitochondrial mass is increased”, the mitochondrial mass (ST HDH cells (Q111, Q7); Q111 cells, 24 hours) was “increased above the baseline from the healthy cell line” and the “stability in buffer (amount remaining, LCMS)” value ([3]; 1 mM P1, 4° C.) was “no stability issues”. For the same molecule, the “stability in buffer (amount remaining, LCMS)” value ([3]; 1 mM P1, 25° C.) was “could affect stability after 4 days”, the “stability in buffer (amount remaining, LCMS)” value ([3]; 1 mM P1, −20° C.) was “no stability issues” and the BDNF level (BDNF, TFEB and PGC1a) was “upregulated”. For the same molecule, the PGC1a level (BDNF, TFEB and PGC1a) was “upregulated” and the TFEB level (BDNF, TFEB and PGC1a) was “upregulated”.
